Data set [1] in a line: Size and charge of LNPs by DLS (Malvern NanoZS). In kind it is physicochemical. As to the method: Thin layer chromatographies (TLC) are carried out on aluminium plates covered with silica gel 60 Fasa (Merck). […] The synthesized products are purified on chromatography columns on silica. The flash chromatography separations are carried out on silica gel 60 (230-400 mesh ASTM) (Merck). Particle size and zeta potential measurements: The mean hydrodynamic particle size and charge measurements were performed using Dynamic Light Scattering (DLS) and Laser Doppler Velocimetry (LDV), respectively, using Malvern Nano ZS instrument and DTS software (Malvern Instruments, UK) in a water of Grade 2. Various amounts of cationic poloxamers were diluted in 100 µl of water and mixed with an equal volume of the same water containing DNA. The measurements were carried out in automatic mode and the results are presented as mean +/- SEM, n= 3. Each mean represents the average value of 30 measurements.
(§1) The size and charge of the collected LNPs are determined using DLS (Malvern Instruments NanoZS) by dissolving 50 µL of the collected solution in 950 µL of MilliQ water. Then, formed LNPs are destabilized by adding 1% v/v of Triton X-100 and incubate at 30°C for 1h and vortexing. After disruption of the formulation, a 1/100 solution of SyBr™Gold in water is prepared, and 0.5µL of it added to 49.5µL of the resulting mixture that includes Triton X-100. The SyBr™Gold is also added the same way to 49.5µL of a solution that contains non-disrupted LNPs, and to 49.5µL of the mRNA mother solution. Fluorescence of each sample is then read after 30 min incubation at RT using a Victor (Perkin Elmer) fluorimeter (excitation: 495nm; emission: 537nm ;). The encapsulation efficiency (ee(%)) is easily obtained from these fluorescence measurements using the formula below: ee (%) = ((Fluo_LNP1v%triton−Fluo_LNP))/(Fluo_RNAstock solution) × 100 [formula]

A short description of data set [2]: Encapsulation efficiency / loaded nucleic acid by SyBr Gold fluorescence after Triton X-100 disruption. In kind it is physicochemical. As to the method:
as §1

A further data set has as its system F-Luc mRNA expression. The data set can be described thus: In vivo transfection of F-Luc mRNA using LNPs, bioluminescence (IVIS imaging). To be noted: nude mice, i.p. An excerpt: Lipids I, VI and XIV have been formulated into LNPs following the molar composition depicted before (Table 1). 5-methoxyuridine-modified mRNA encoding for Firefly Luciferase (OZ Biosciences, Cat: MRNA16-1000) has been entrapped into the LNP. […] Table 3: Main physical properties of mRNA(F-Luc) LNPs based on tunable lipids I, VI, XIV, and cationic lipid DOTAP
Overall, all LNPs formulations display consistent physico-chemical properties, controlled and reproducible size, charge, polydispersity and encapsulation rate to be used in small animals. A dose equivalent to 10 µg of mRNA has been injected i.p. (intra-peritoneally) in nude mice using three different LNPs. Tunable lipids I and XIV and DOTAP-based LNPs have been selected. Bioluminescence has been monitored over time using IVIS imaging system. […] Indeed 3h post injection, luminescence could be observed in all animals at different proportions (Figure 50). Specifically, F-Luc mRNA expression was higher in mice that received LNPs based on tunable lipids, whereas expression was much lower when DOTAP is used.

The next data set concerns firefly luciferase. Briefly: Biodistribution study of Luciferase mRNA LNPs, RT-PCR of organs. In kind it is in vivo. The note with it: nude mice, i.p., 10µg RNA dose, RT-PCR 6 hours after injection. The method, then: Biodistribution study involving tunable lipids-based LNPs (lipids I, VI, and XIV) has also been conducted in nude mice that were injected i.p. with Luciferase mRNA formulated into 3 different LNPs formulations at 10µg RNA dose to evaluate the nucleic acid delivery into various organs. The liver, lung, kidney and spleen were collected and analysed through RT-PCR 6 hours after injection. As observed previously, tunable lipids-based LNPs are appropriately efficient to allow the observation and quantitation of Luciferase protein in quantity 6 hours after i.p. injection.

The subject of a further data set is ovalbumin (OVA) antigen. The data set can be described thus: In vivo immunization with OVA mRNA LNPs, ELISA and Elispot. The note with it: C57BL6J mice, s.c. prime boost (D0-14), 10µg mRNA. An excerpt:
In this context, the emergence of vaccine-based LNPs represents a clear opportunity to reach pathologies impossible to fight with more classical vaccine approach. The tunable lipid presented in this document could envisioned as potent pillar for future nucleic acid-based vaccine, due to their ground-breaking features in term of efficiency and safe character. Thus, LNPs based on tunable lipids I and XIV have been formulated to encapsulate unmodified mRNA coding for the ovalbumin (OVA) antigen (OZ Biosciences, Cat: MRNA42-1000) and their physico-chemical properties determined (Table 4). Table 4: Main physical properties of mRNA(OVA) LNPs based on tunable lipids I and XIV.
C57BL6J mice received a prime boost (D0-14) immunizations of OVA antigen delivered by mRNA-based LNPs or by recombinant protein (alone or adjuvanted with aluminium-based adjuvant). To characterize the immuno-phenotyping of the mice, the sera and splenocytes were collected at different time (D0, D14, D21, D28) and analysed by ELISA and Elispot. The mice were immunized by s.c (sub-cutaneous) route with 100µL per injection at 10µg OVA subunit and 10µg mRNA doses. Results are depicted in figures 51 and 52, mRNA-OVA LNP formulations are efficient at priming a strong humoral response upon sub-cutaneous prime boost injection (D0-14). Indeed, a strong antibody response was measured after prime boost immunization. […]
Background: ELISA stands for enzyme-linked immunosorbent assay.

Where [3] appears, read: DNA pVectOZ (F-Luc) LNPs, total lipid 4.6 mM, N/P 12.
The mark [4] stands for this setting: NTsiRNA-Cy5 LNPs, DiO Label N, total lipid 4.74 mM, N/P 6.
Where [5] appears, read: NTsiRNA-Cy5 LNPs, DiO Label Y, total lipid 4.74 mM, N/P 6.
[6] abbreviates: mRNA(GFP) LNPs, total lipid 3.75 mM, N/P 6.
The mark [7] stands for this setting: DNA pVectOZ (eGFP) LNPs, total lipid 3.91 mM, N/P 6.6.
[8] abbreviates: DNA pVectOZ(Ppt) LNPs, total lipid 4 mM, N/P 10.
Setting [9] is: mRNA(F-Luc) LNPs, total lipid 5 mM, N/P 6.
The mark [10] stands for this setting: mRNA(OVA) LNPs, total lipid 5 mM, N/P 6.

A value given as a limit tells only on which side of the number the result lay.

Results on 8 compounds are retold here after patent EP4480943A1, “NEW CLASS OF LIPIDS FOR DELIVERING ACTIVE INGREDIENTS INTO CELLS” (Oz Biosciences, priority 2023, dated 2024).

Turning to `CCCCC/C=C\C/C=C\CCCCCCCCOC(=O)CCC(NC(=O)CCCN(C)C)C(=O)OCCCCCCCC/C=C\C/C=C\CCCCC` (stereo not shown) [XI], in data set [1] (setting [3]), the PDI was 0.079, the Size is listed as 103 nm and the Zeta entry is on record as “+16.5 mV”. Also, in data set [1] (setting [4]), the PDI is 0.091, the Size is 116 nm and the Zeta result was “+18.2 mV”. Also, in data set [1] (setting [5]), the PDI is 0.073, the Size came to 99 nm and the Zeta result is “+19.9 mV”. Moreover, in data set [1] (NTsiRNA-Cy5 LNPs, with or without DiO), the polydispersity index entry is given as “below 0.1”. In data set [2] (setting [3]), the “Encapsulation Efficiency” value was 92% and the “Loaded DNA” value is reported as 94 ng/µL. Besides, in data set [2] (setting [4]), the “Encapsulation Efficiency” value is on record as above 90% and the “Loaded siRNA” value was found to be 0.125 ng/µL. In data set [2] (setting [5]), the “Encapsulation Efficiency” value is above 90% and the “Loaded siRNA” value is on record as 0.125 ng/µL.

Take `CCCCCCCC/C=C\CCCCCCCC(=O)NCCCC(NC(=O)CCCCCCC/C=C\CCCCCCCC)C(=O)NCCCn1ccnc1` (stereo not shown) [XV]: in data set [2] (setting [6]), the “Encapsulation Efficiency” value was found to be 78.3% and the “Loaded RNA” value is recorded as 78.3 ng/µL.

`CCCCCCC/C=C\CCCCCCCCNC(=O)CCC(NC(=O)CCCN(C)C)C(=O)NCCCCCCCC/C=C\CCCCCCCC` (stereo not shown) [II]: in data set [1] (setting [6]), the PDI is on record as 0.2, the Size worked out at 113 nm and the Zeta was found to be 5.57 mV. Further, in data set [2] (setting [6]), the “Encapsulation Efficiency” value is listed as 98.8% and the “Loaded RNA” value came to 98.8 ng/µL.

With `CCCCCCCC/C=C\CCCCCCCCNC(=O)CCC(NC(=O)CN(C)C)C(=O)NCCCCCCCC/C=C\CCCCCCCC` (stereo not shown) [I], the PDI in data set [1] (setting [7]) amounted to 0.044; in data set [1] (setting [8]), 0.079; in data set [1] (setting [9]) it was 0.09; in data set [1] (setting [10]), 0.153. The Size in data set [1] (setting [7]) was determined as 158.9 nm; in data set [1] (setting [8]), 173 nm; in data set [1] (setting [9]), 88 nm; in data set [1] (setting [10]) it was 111.4 nm. Also, the Zeta result was “+4.61 mV” in data set [1] (setting [7]); “+14.3 mV” in data set [1] (setting [8]); -7.3 mV in data set [1] (setting [9]); -9.3 mV in data set [1] (setting [6]); -9.01 mV in data set [1] (setting [10]). The “Encapsulation Efficiency” value in data set [2] (setting [7]) came out at 83%; in data set [2] (setting [8]), 82%; in data set [2] (setting [9]), 97.5%; in data set [2] (setting [6]) it was 94.6%; in data set [2] (setting [10]), 98.1%. For the same compound, the “Loaded DNA” value in data set [2] (setting [7]) and in data set [2] (setting [8]) was 0.125 ng/µL throughout. The “Loaded RNA” value was found to be 195 ng/µL in data set [2] (setting [9]), 94.6 ng/µL in data set [2] (setting [6]) and 98.1 ng/µL in data set [2] (setting [10]). Also, the “time of maximum bioluminescence signal post injection” value in the data set with F-Luc mRNA expression (10 µg mRNA) was 6 h. In the data set on F-Luc mRNA expression (10 µg mRNA, over 25h), the “overall luminescence signal (kinetics)” value was “highest overall luminescence signal”. Also, the “Luciferase gene expression in lung” value in the data set with firefly luciferase is listed as “high protein expression rate”. In addition, the “Luciferase gene expression in spleen” value in the data set with firefly luciferase is given as “high protein expression rate”. Also, the “immune response (initial response of IgG2c)” value with ovalbumin (OVA) antigen is “efficient in generating an immune response”.

As for `CCCCCCC/C=C\CCCCCCCCNC(=O)CCC(NC(=O)OCCN(CC)CC)C(=O)NCCCCCCCC/C=C\CCCCCCCC` (stereo not shown) [V], in data set [2] (setting [6]), the “Encapsulation Efficiency” value stood at 89% and the “Loaded RNA” value stood at 89 ng/µL.

For `CCCCC/C=C\C/C=C\CCCCCCCCOC(=O)CCC(NC(=O)CN(C)C)C(=O)OCCCCCCCC/C=C\C/C=C\CCCCC` (stereo not shown) [X], in data set [1] (setting [6]), the PDI was 0.109, the Size is recorded as 141 nm and the Zeta result is given as “+11.6 mV”. In addition, in data set [2] (setting [6]), the “Encapsulation Efficiency” value amounted to 83.6% and the “Loaded RNA” value worked out at 83.6 ng/µL.

Take `CCCCCCCC/C=C\CCCCCCCC(=O)OCC(C[N+](C)(C)C)OC(=O)CCCCCCC/C=C\CCCCCCCC` (stereo not shown) [DOTAP, I ,2-dioleoy-3-tri-methylarnmonium propane, reference compound]: in data set [1] (setting [9]), the PDI is given as 0.23, the Size is listed as 96 nm and the Zeta entry is recorded as “+17 mV”. For the same compound, in data set [2] (setting [9]), the “Encapsulation Efficiency” value is 91.5% and the “Loaded RNA” value is reported as 183 ng/µL. Moreover, in the data set on F-Luc mRNA expression (10 µg of mRNA, 3h post injection), the “F-Luc mRNA expression (bioluminescence)” value was “much lower”.

As to `CCCCCCCC/C=C\CCCCCCCCNC(=O)CCC(NC(=O)CCC(=O)NCCSSCCNC(=O)CN(C)C)C(=O)NCCCCCCCC/C=C\CCCCCCCC` (stereo not shown) [VI], in data set [1] (setting [9]), the PDI was 0.13, the Size stood at 115 nm and the Zeta is -2.25 mV. In data set [1] (setting [6]), the PDI came to 0.344, the Size amounted to 117 nm and the Zeta entry is recorded as “+0.3 mV”. In data set [2] (setting [9]), the “Encapsulation Efficiency” value was 94% and the “Loaded RNA” value amounted to 188 ng/µL. Also, in data set [2] (setting [6]), the “Encapsulation Efficiency” value is reported as 84% and the “Loaded RNA” value is 84 ng/µL. Also, in the data set on firefly luciferase, the “Luciferase gene expression in liver” value is recorded as “rate comparable to those observed in the lungs” and the “Luciferase gene expression in spleen” value is listed as “high delivery”.
